Measured values: ChEMBL document CHEMBL1131005, “Synthesis and dopamine transporter affinity of the four stereoisomers of (+/-)-2-(methoxycarbonyl)-7-methyl-3-phenyl-7-azabicyclo[2.2.1]heptane” (J Med Chem, 1998)

Each molecule was assayed against Sodium-dependent dopamine transporter (Rattus norvegicus, UniProt P23977) (assay: Binding affinity towards dopamine transporter using [3H]WIN-35428 as radioligand in rat caudate-putamen tissue).
Sodium-dependent dopamine transporter, sequence (P23977 whole entry): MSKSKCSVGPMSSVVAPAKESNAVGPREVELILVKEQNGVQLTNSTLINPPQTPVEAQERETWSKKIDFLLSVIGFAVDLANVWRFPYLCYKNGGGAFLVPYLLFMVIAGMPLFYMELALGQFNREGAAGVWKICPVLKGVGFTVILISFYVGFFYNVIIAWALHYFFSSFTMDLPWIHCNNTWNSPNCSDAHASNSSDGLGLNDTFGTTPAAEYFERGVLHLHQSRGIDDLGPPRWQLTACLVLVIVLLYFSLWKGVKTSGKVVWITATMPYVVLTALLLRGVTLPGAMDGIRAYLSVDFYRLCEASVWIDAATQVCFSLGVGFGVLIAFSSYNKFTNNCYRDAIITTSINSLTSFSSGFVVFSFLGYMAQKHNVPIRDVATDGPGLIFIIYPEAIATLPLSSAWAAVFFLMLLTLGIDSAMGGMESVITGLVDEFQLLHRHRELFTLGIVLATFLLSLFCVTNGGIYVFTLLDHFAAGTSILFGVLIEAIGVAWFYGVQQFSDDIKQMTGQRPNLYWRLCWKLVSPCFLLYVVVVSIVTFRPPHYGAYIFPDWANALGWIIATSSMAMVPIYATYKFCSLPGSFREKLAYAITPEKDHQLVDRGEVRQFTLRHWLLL
Format: tissue-based
`COC(=O)[C@@H]1C2CCC([C@H]1c1ccccc1)N2C` (stereo partly drawn) gave a Ki of 5.62 µM.
`COC(=O)[C@H]1C2CCC([C@H]1c1ccccc1)N2C` (stereo partly drawn) showed a Ki of 18.9 µM.
Molecule `COC(=O)[C@@H]1C2CCC([C@@H]1c1ccccc1)N2C` (stereo partly drawn) has a Ki of 60.4 µM.
